Source: US20020111274A1, “1-alkyl-3-[1-(substituted phenyl) benzotriazol-6-yl] uracils” (BASF Aktiengesellschaft, priority 2000, published 2002)

Experiments:
Design in all cases: scale not given here
[1] = test system: ABUTH Velvetleaf; test: Postemergence herbicidal evaluation, ABUTH; assay type: in vivo, Abutilon theophrasti, Medic.; details: postemergence spray, rated about two-three weeks after treatment
Method in brief: (§1)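 For this test, compound in an 80/20 acetone/water vehicle with 1.0% seed oil was sprayed over two-week-old seedlings at about 0.006 to 0.400 kg per hectare. Injury was assessed visually two to three weeks on.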

[2] = test system: AMBEL Ragweed, Common; test: Postemergence herbicidal evaluation, AMBEL; assay type: in vivo, Ambrosia artemisifolia, L.; details: postemergence spray, rated about two-three weeks after treatment
Method in brief: as §1

[3] = test system: CASOB Sicklepod; test: Postemergence herbicidal evaluation, CASOB; assay type: in vivo, Cassia obtusifolia, L.; details: postemergence spray, rated about two-three weeks after treatment
Method in brief: as §1

[4] = test system: CHEAL Lambsquarters, Common; test: Postemergence herbicidal evaluation, CHEAL; assay type: in vivo, Chenopodium album, L.; details: postemergence spray, rated about two-three weeks after treatment
Method in brief: as §1

[5] = test system: ECHOG Barnyardgrass; test: Postemergence herbicidal evaluation, ECHOG; assay type: in vivo, Echinochloa crus-galli, (L.) Beau; details: postemergence spray, rated about two-three weeks after treatment
Method in brief: as §1

[6] = test system: GALAP Galium; test: Postemergence herbicidal evaluation, GALAP; assay type: in vivo, Galium aparine; details: postemergence spray, rated about two-three weeks after treatment
Method in brief: as §1

[7] = test system: IPOHE Morningglory, Ivyleaf; test: Postemergence herbicidal evaluation, IPOHE; assay type: in vivo, Ipomoea hederacea, (L.) Jacq.; details: postemergence spray, rated about two-three weeks after treatment
Method in brief: as §1

[8] = test system: SETVI Foxtail, Green; test: Postemergence herbicidal evaluation, SETVI; assay type: in vivo, Setaria viridis, (L.) Beau; details: postemergence spray, rated about two-three weeks after treatment
Method in brief: as §1

[9] = test system: GLXMAW Soybean, Williams; test: Postemergence herbicidal evaluation, GLXMAW; assay type: in vivo, Glycine max, (L.) Merr. cv Williams; details: postemergence spray, rated about two-three weeks after treatment
Method in brief: as §1

[10] = test system: TRZAWR Wheat, Winter, cv Riband; test: Postemergence herbicidal evaluation, TRZAWR; assay type: in vivo, Triticum aestivum; details: postemergence spray, rated about two-three weeks after treatment
Method in brief: as §1

[11] = test system: ORYSAT Rice, Tebonnet; test: Postemergence herbicidal evaluation, ORYSAT; assay type: in vivo, Oryza sativa, (L.); details: postemergence spray, rated about two-three weeks after treatment
Method in brief: as §1

[12] = test system: ZEAMX Corn, Field; test: Postemergence herbicidal evaluation, ZEAMX; assay type: in vivo, Zea mays, L. (Sammel-Bezeichnung); details: postemergence spray, rated about two-three weeks after treatment
Method in brief: as §1

[13] = test system: ABUTH Velvetleaf; test: Preemergence herbicidal evaluation, ABUTH; assay type: in vivo, Abutilon theophrasti, Medic.; details: preemergence
Method in brief: (§2)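 Compound applied preemergence as an aqueous acetone spray onto freshly planted cups, dose equivalent approx. 0.013 to 0.800 kg/ha. Evaluation by rating at weeks 4–5.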

[14] = test system: AMBEL Ragweed, Common; test: Preemergence herbicidal evaluation, AMBEL; assay type: in vivo, Ambrosia artemisifolia, L.; details: preemergence
Method in brief: as §2

[15] = test system: CASOB Sicklepod; test: Preemergence herbicidal evaluation, CASOB; assay type: in vivo, Cassia obtusifolia, L.; details: preemergence
Method in brief: as §2

[16] = test system: CHEAL Lambsquarters, Common; test: Preemergence herbicidal evaluation, CHEAL; assay type: in vivo, Chenopodium album, L.; details: preemergence
Method in brief: as §2

[17] = test system: ECHOG Barnyardgrass; test: Preemergence herbicidal evaluation, ECHOG; assay type: in vivo, Echinochloa crus-galli, (L.) Beau; details: preemergence
Method in brief: as §2

[18] = test system: GALAP Galium; test: Preemergence herbicidal evaluation, GALAP; assay type: in vivo, Galium aparine; details: preemergence
Method in brief: as §2

[19] = test system: IPOHE Morningglory, Ivyleaf; test: Preemergence herbicidal evaluation, IPOHE; assay type: in vivo, Ipomoea hederacea, (L.) Jacq.; details: preemergence
Method in brief: as §2

[20] = test system: SETVI Foxtail, Green; test: Preemergence herbicidal evaluation, SETVI; assay type: in vivo, Setaria viridis, (L.) Beau; details: preemergence
Method in brief: as §2

[21] = test system: GLXMAW Soybean, Williams; test: Preemergence herbicidal evaluation, GLXMAW; assay type: in vivo, Glycine max, (L.) Merr. cv Williams; details: preemergence
Method in brief: as §2

[22] = test system: TRZAWR Wheat, Winter, cv Riband; test: Preemergence herbicidal evaluation, TRZAWR; assay type: in vivo, Triticum aestivum; details: preemergence
Method in brief: as §2

[23] = test system: ORYSAT Rice, Tebonnet; test: Preemergence herbicidal evaluation, ORYSAT; assay type: in vivo, Oryza sativa, (L.); details: preemergence
Method in brief: as §2

[24] = test system: ZEAMX Corn, Field; test: Preemergence herbicidal evaluation, ZEAMX; assay type: in vivo, Zea mays, L. (Sammel-Bezeichnung); details: preemergence
Method in brief: as §2

COCc1ccccc1-n1nnc2cc(F)c(-n3c(=O)cc(C(F)(F)F)n(C)c3=O)cc21 [Example 26]
Postemergence herbicidal rating ABUTH ([1]; 0.008 kg/ha): 9.0
Postemergence herbicidal rating ABUTH ([1]; 0.016 kg/ha): 9.0
Postemergence herbicidal rating ABUTH ([1]; 0.032 kg/ha): 9.0
Postemergence herbicidal rating ABUTH ([1]; 0.062 kg/ha): 9.0
Postemergence herbicidal rating AMBEL ([2]; 0.008 kg/ha): 4.0
Postemergence herbicidal rating AMBEL ([2]; 0.016 kg/ha): 6.0
Postemergence herbicidal rating AMBEL ([2]; 0.032 kg/ha): 7.0
Postemergence herbicidal rating AMBEL ([2]; 0.062 kg/ha): 9.0
Postemergence herbicidal rating CASOB ([3]; 0.008 kg/ha): 1.0
Postemergence herbicidal rating CASOB ([3]; 0.016 kg/ha): 2.0
Postemergence herbicidal rating CASOB ([3]; 0.032 kg/ha): 2.0
Postemergence herbicidal rating CASOB ([3]; 0.062 kg/ha): 4.0
Postemergence herbicidal rating CHEAL ([4]; 0.008 kg/ha): 2.0
Postemergence herbicidal rating CHEAL ([4]; 0.016 kg/ha): 7.0
Postemergence herbicidal rating CHEAL ([4]; 0.032 kg/ha): 9.0
Postemergence herbicidal rating ECHCG ([5]; 0.008 kg/ha): 1.0
Postemergence herbicidal rating ECHCG ([5]; 0.016 kg/ha): 1.0
Postemergence herbicidal rating ECHCG ([5]; 0.032 kg/ha): 1.0
Postemergence herbicidal rating ECHCG ([5]; 0.062 kg/ha): 3.0
Postemergence herbicidal rating GALAP ([6]; 0.008 kg/ha): 1.0
Postemergence herbicidal rating GALAP ([6]; 0.016 kg/ha): 1.0
Postemergence herbicidal rating GALAP ([6]; 0.032 kg/ha): 2.0
Postemergence herbicidal rating GALAP ([6]; 0.062 kg/ha): 6.0
Postemergence herbicidal rating IPOHE ([7]; 0.008 kg/ha): 4.0
Postemergence herbicidal rating IPOHE ([7]; 0.016 kg/ha): 9.0
Postemergence herbicidal rating IPOHE ([7]; 0.032 kg/ha): 9.0
Postemergence herbicidal rating IPOHE ([7]; 0.062 kg/ha): 9.0
Postemergence herbicidal rating SETVI ([8]; 0.008 kg/ha): 1.0
Postemergence herbicidal rating SETVI ([8]; 0.016 kg/ha): 5.0
Postemergence herbicidal rating SETVI ([8]; 0.032 kg/ha): 2.0
Postemergence herbicidal rating SETVI ([8]; 0.062 kg/ha): 5.0
Postemergence herbicidal rating GLXMAW ([9]; 0.008 kg/ha): 4.5
Postemergence herbicidal rating GLXMAW ([9]; 0.016 kg/ha): 5.0
Postemergence herbicidal rating GLXMAW ([9]; 0.032 kg/ha): 5.5
Postemergence herbicidal rating GLXMAW ([9]; 0.062 kg/ha): 9.0
Postemergence herbicidal rating TRZAWR ([10]; 0.008 kg/ha): 2.0
Postemergence herbicidal rating TRZAWR ([10]; 0.016 kg/ha): 2.5
Postemergence herbicidal rating TRZAWR ([10]; 0.032 kg/ha): 3.0
Postemergence herbicidal rating TRZAWR ([10]; 0.062 kg/ha): 4.0
Postemergence herbicidal rating ORYSAT ([11]; 0.008 kg/ha): 2.0
Postemergence herbicidal rating ORYSAT ([11]; 0.016 kg/ha): 2.0
Postemergence herbicidal rating ORYSAT ([11]; 0.032 kg/ha): 3.0
Postemergence herbicidal rating ORYSAT ([11]; 0.062 kg/ha): 4.5
Postemergence herbicidal rating ZEAMX ([12]; 0.008 kg/ha): 3.5
Postemergence herbicidal rating ZEAMX ([12]; 0.016 kg/ha): 4.0
Postemergence herbicidal rating ZEAMX ([12]; 0.032 kg/ha): 4.0
Postemergence herbicidal rating ZEAMX ([12]; 0.062 kg/ha): 6.5
ABUTH herbicidal rating ([13]; rate 0.016 kg/ha): 9.0
ABUTH herbicidal rating ([13]; rate 0.032 kg/ha): 9.0
ABUTH herbicidal rating ([13]; rate 0.062 kg/ha): 9.0
ABUTH herbicidal rating ([13]; rate 0.125 kg/ha): 9.0
AMBEL herbicidal rating ([14]; rate 0.016 kg/ha): 2.0
AMBEL herbicidal rating ([14]; rate 0.032 kg/ha): 7.0
AMBEL herbicidal rating ([14]; rate 0.062 kg/ha): 7.0
AMBEL herbicidal rating ([14]; rate 0.125 kg/ha): 9.0
CASOB herbicidal rating ([15]; rate 0.016 kg/ha): 0.0
CASOB herbicidal rating ([15]; rate 0.032 kg/ha): 0.0
CASOB herbicidal rating ([15]; rate 0.062 kg/ha): 7.0
CASOB herbicidal rating ([15]; rate 0.125 kg/ha): 7.0
CHEAL herbicidal rating ([16]; rate 0.032 kg/ha): 7.0
CHEAL herbicidal rating ([16]; rate 0.062 kg/ha): 9.0
CHEAL herbicidal rating ([16]; rate 0.125 kg/ha): 9.0
ECHCG herbicidal rating ([17]; rate 0.016 kg/ha): 1.0
ECHCG herbicidal rating ([17]; rate 0.032 kg/ha): 6.0
ECHCG herbicidal rating ([17]; rate 0.062 kg/ha): 7.0
ECHCG herbicidal rating ([17]; rate 0.125 kg/ha): 9.0
GALAP herbicidal rating ([18]; rate 0.016 kg/ha): 0.0
GALAP herbicidal rating ([18]; rate 0.032 kg/ha): 0.0
GALAP herbicidal rating ([18]; rate 0.062 kg/ha): 7.0
GALAP herbicidal rating ([18]; rate 0.125 kg/ha): 8.0
IPOHE herbicidal rating ([19]; rate 0.016 kg/ha): 0.0
IPOHE herbicidal rating ([19]; rate 0.032 kg/ha): 9.0
IPOHE herbicidal rating ([19]; rate 0.062 kg/ha): 6.0
IPOHE herbicidal rating ([19]; rate 0.125 kg/ha): 9.0
SETVI herbicidal rating ([20]; rate 0.016 kg/ha): 2.0
SETVI herbicidal rating ([20]; rate 0.032 kg/ha): 9.0
SETVI herbicidal rating ([20]; rate 0.062 kg/ha): 9.0
SETVI herbicidal rating ([20]; rate 0.125 kg/ha): 9.0
GLXMAW herbicidal rating ([21]; rate 0.016 kg/ha): 1.0
GLXMAW herbicidal rating ([21]; rate 0.032 kg/ha): 2.0
GLXMAW herbicidal rating ([21]; rate 0.062 kg/ha): 9.0
GLXMAW herbicidal rating ([21]; rate 0.125 kg/ha): 5.0
TRZAWR herbicidal rating ([22]; rate 0.016 kg/ha): 0.0
TRZAWR herbicidal rating ([22]; rate 0.062 kg/ha): 6.0
TRZAWR herbicidal rating ([22]; rate 0.125 kg/ha): 8.0
ORYSAT herbicidal rating ([23]; rate 0.016 kg/ha): 0.0
ORYSAT herbicidal rating ([23]; rate 0.032 kg/ha): 3.0
ORYSAT herbicidal rating ([23]; rate 0.062 kg/ha): 5.0
ORYSAT herbicidal rating ([23]; rate 0.125 kg/ha): 7.0
ZEAMX herbicidal rating ([24]; rate 0.016 kg/ha): 1.0
ZEAMX herbicidal rating ([24]; rate 0.032 kg/ha): 4.0
ZEAMX herbicidal rating ([24]; rate 0.062 kg/ha): 7.0
ZEAMX herbicidal rating ([24]; rate 0.125 kg/ha): 7.0
